Source: US12172919B2, “Deconstruction of oilsand materials using ionic liquids” (ADJACENCY LABS CORP., priority 2017, dated 2024)
Where two headings read alike, the source gives them in different places.

What was measured:
[1] = In-situ extraction: IL injection through column packed with oil sand; settings: 100 g oil sand, 0.5 mL/min for 26 h, 24 h soak, 2 h re-injection
Procedure: 100 g dry oil sand was packed into a steel tube (1.5×30 cm). The packed steel tube then was mounted into apparatus to allow injection of desired fluid through the oil sand while collecting the effluent for subsequent analysis (FIG. 61). The injection of [C8NH3][Oleate] was continuous for 26 h at an injection rate of 0.5 mL/min, and the injection pressure was stabilized in the range 1940-2000 kPa. The breakthrough time was around 35 min. This indicates the pore volume was around 17.5 ml. The total amount of [C8NH3][Oleate] injected was around 783 ml. […] At the first 2.5 h of injection, the bitumen recovery is significant, and the fluid recovered is black. However, with continuing injection the black intensity decreases gradually till the effluent is clear [C8NH3][Oleate] after 26 h.
After 26 h of injection, the pump was stopped and the [C8NH3][Oleate]/Oil sand system in the steel column was left to soak for 24 h. Then injection was re-started with the same injection rate (0.5 mL/min) and the pressure stabilized at around 1850 kPa (similar level before soaking). The blackness of the fluid samples recovered during 2 h of injection post-soaking is not as intense as that during the same time for [C8NH3][Oleate] injection into the fresh oil sand. […]
After terminating the experiment, the bitumen still in the oil sand was quantified using Dean Stark.

[2] = Thermogravimetric analysis (TGA); format: physicochemical

For octylammonium oleate [[C8NH3][Oleate]], the “bitumen remaining in oil sand by Dean Stark extraction, of the initial amount of bitumen” value [1] was 47.34%, the thermal decomposition temperature [2] was 129 °C and the “[C8NH3][Oleate] solubility” value (solvent: Acetonitrile) was “− (Insoluble (0.2 g in 3 mL solvent))”. For the same substance, the “[C8NH3][Oleate] solubility” value (solvent: Chloroform) was “+ (Soluble (0.2 g in 0.5 mL solvent))”, the “[C8NH3][Oleate] solubility” value (solvent: DI water) was “− (Insoluble (0.2 g in 3 mL solvent))” and the “[C8NH3][Oleate] solubility” value (solvent: Dichlorobenzene) was “+ (Soluble (0.2 g in 0.5 mL solvent))”. The “[C8NH3][Oleate] solubility” value (solvent: Dichloromethane) was “+ (Soluble (0.2 g in 0.5 mL solvent))”, the “[C8NH3][Oleate] solubility” value (solvent: Dimethyl sulfoxide) was “− (Insoluble (0.2 g in 3 mL solvent))” and the “[C8NH3][Oleate] solubility” value (solvent: Hexane) was “+ (Soluble (0.2 g in 0.5 mL solvent))”. The “[C8NH3][Oleate] solubility” value (solvent: Methanol) was “+ (Soluble (0.2 g in 0.5 mL solvent))” and the “[C8NH3][Oleate] solubility” value (solvent: Xylene) was “+ (Soluble (0.2 g in 0.5 mL solvent))”.
